Laboratory results as given in US8735425B2, “Tetrahydroisoquinoline derivative” (Daiichi Sankyo Company, Limited, priority 2008, dated 2014).

Assays:
DGAT1 enzyme = biological target: T1, DGAT1 enzyme (Homo sapiens, UniProt O75907); experiment: DGAT1 inhibitory activity test; format: biochemical; conditions: test compound concentration of 0.05 μg/ml; read-out: Inhibitory Rate
T1 construct: made in house
T1 sequence (O75907 1-488): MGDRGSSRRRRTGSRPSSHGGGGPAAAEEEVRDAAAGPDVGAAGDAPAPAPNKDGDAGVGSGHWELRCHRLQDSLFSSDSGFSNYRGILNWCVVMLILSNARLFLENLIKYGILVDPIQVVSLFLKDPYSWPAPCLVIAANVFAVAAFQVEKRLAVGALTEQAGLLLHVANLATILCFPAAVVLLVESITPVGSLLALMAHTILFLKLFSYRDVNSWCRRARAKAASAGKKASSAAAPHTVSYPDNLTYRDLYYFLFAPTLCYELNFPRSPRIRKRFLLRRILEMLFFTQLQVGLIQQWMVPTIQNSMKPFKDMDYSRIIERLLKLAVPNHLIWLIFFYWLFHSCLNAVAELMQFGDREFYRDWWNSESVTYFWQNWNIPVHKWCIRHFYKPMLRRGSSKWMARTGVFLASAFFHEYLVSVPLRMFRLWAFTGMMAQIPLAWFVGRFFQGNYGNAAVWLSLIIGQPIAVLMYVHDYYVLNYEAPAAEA
Outline: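 Reaction at 23° C for 30 min in 175 mM Tris-HCl pH 8.0, 8 mM MgCl2, 1 mg/ml BSA, 0.5% Triton X-100 with 0.3 mM 1,2-dioleoyl-sn-glycerol and 10 μM [14C]-oleoyl-CoA. Triglyceride extracted into heptane, separated by TLC, radioactivity quantified; % inhibition versus vehicle control, 0-min background subtracted.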

Male C57BL/6N mice = experiment: Triglyceride absorption suppression after fat loading (in vivo DGAT1 inhibitory effect); conditions: Mus musculus, po; dose of 10 mg/kg or lower, orally administered, mice fasted overnight, plasma triglyceride after fat loading; read-out: Triglyceride absorption suppressive activity
Outline: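 Overnight-fasted male C57BL/6N mice dosed orally with compound (1 to 10 mg/kg in 0.5% methylcellulose), then given Pluronic-F127 1 g/kg i.p. and an oral 20% Intralipid load. Plasma triglyceride measured 1 to 4 h later. Absorption suppression (%) calculated against water-loaded and fat-loaded vehicle groups.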

Row | inhibition at 0.05 µg/mL (DGAT1 enzyme) | SMILES | inhibition in vivo at up to 10 mg/kg (Male C57BL/6N mice)
1 | ≥ 50% | CC(C)c1ccc(NC(=O)Nc2ccc3c(c2)CCN(C(=O)O[C@H]2CC[C@H](CC(=O)O)CC2)C3)cc1 [Example 72, trans-6-[3-(4-isopropyl-phenyl)-ureido]-3,4-dihydro-1H-isoquinoline-2-carboxylic acid 4-carboxymethyl-cyclohexyl ester] | ≥ 60%
2 | ≥ 50% | CC(C)(C)c1ccc(NC(=O)Nc2ccc3c(c2)CCN(C(=O)O[C@H]2CC[C@H](CC(=O)O)CC2)C3)cc1 [Example 73, trans-6-[3-(4-tert-butyl-phenyl)-ureido]-3,4-dihydro-1H-isoquinoline-2-carboxylic acid 4-carboxymethyl-cyclohexyl ester] | ≥ 60%
3 | ≥ 50% | N#Cc1cccc(NC(=O)Nc2ccc3c(c2)CCN(C(=O)O[C@H]2CC[C@H](CC(=O)O)CC2)C3)c1 [Example 74, trans-6-[3-(3-cyano-phenyl)-ureido]-3,4-dihydro-1H-isoquinoline-2-carboxylic acid 4-carboxymethyl-cyclohexyl ester] | ≥ 60%
4 | ≥ 50% | CN(C)c1cccc(NC(=O)Nc2ccc3c(c2)CCN(C(=O)O[C@H]2CC[C@H](CC(=O)O)CC2)C3)c1 [Example 75, trans-6-[3-(3-dimethylamino-phenyl)-ureido]-3,4-dihydro-1H-isoquinoline-2-carboxylic acid 4-carboxymethyl-cyclohexyl ester] | ≥ 60%
5 | ≥ 50% | CC(C)(C)c1cccc(NC(=O)Nc2ccc3c(c2)CCN(C(=O)O[C@H]2CC[C@H](CC(=O)O)CC2)C3)c1 [Example 76, trans-6-[3-(3-tert-butyl-phenyl)-ureido]-3,4-dihydro-1H-isoquinoline-2-carboxylic acid 4-carboxymethyl-cyclohexyl ester] | ≥ 60%
6 | ≥ 50% | Cc1ccccc1NC(=O)Nc1ccc2c(c1)CCN(C(=O)O[C@H]1CC[C@H](CC(=O)O)CC1)C2 [Example 77, trans-6-(3-o-tolyl-ureido)-3,4-dihydro-1H-isoquinoline-2-carboxylic acid 4-carboxymethyl-cyclohexyl ester] | ≥ 60%
7 | ≥ 50% | Cc1ccc(NC(=O)Nc2ccc3c(c2)CCN(C(=O)O[C@H]2CC[C@H](CC(=O)O)CC2)C3)cc1C [Example 78, trans-6-[3-(3,4-dimethyl-phenyl)-ureido]-3,4-dihydro-1H-isoquinoline-2-carboxylic acid 4-carboxymethyl-cyclohexyl ester] | ≥ 60%
8 | ≥ 50% | CCOc1ccc(NC(=O)Nc2ccc3c(c2)CCN(C(=O)O[C@H]2CC[C@H](CC(=O)O)CC2)C3)cc1 [Example 80, trans-6-[3-(4-ethoxy-phenyl)-ureido]-3,4-dihydro-1H-isoquinoline-2-carboxylic acid 4-carboxymethyl-cyclohexyl ester] | ≥ 60%
9 | ≥ 50% | CC(C)(C)NC(=O)Nc1ccc2c(c1)CCN(C(=O)O[C@H]1CC[C@H](CC(=O)O)CC1)C2 [Example 82, trans-6-(3-tert-butyl-ureido)-3,4-dihydro-1H-isoquinoline-2-carboxylic acid 4-carboxymethyl-cyclohexyl ester] | ≥ 60%
10 | ≥ 50% | O=C(O)C[C@H]1CC[C@H](OC(=O)N2CCc3cc(NC(=O)NC4CCCC4)ccc3C2)CC1 [Example 83, trans-6-(3-cyclopentyl-ureido)-3,4-dihydro-1H-isoquinoline-2-carboxylic acid 4-carboxymethyl-cyclohexyl ester] | ≥ 60%
11 | ≥ 50% | O=C(O)C[C@H]1CC[C@H](OC(=O)N2CCc3cc(NC(=O)NC4CCCCC4)ccc3C2)CC1 [Example 84, trans-6-(3-cyclohexyl-ureido)-3,4-dihydro-1H-isoquinoline-2-carboxylic acid 4-carboxymethyl-cyclohexyl ester] | ≥ 60%
12 | ≥ 50% | O=C(O)C[C@H]1CC[C@H](OC(=O)N2CCc3cc(NC(=O)NCC4CCCCC4)ccc3C2)CC1 [Example 85, trans-6-(3-cyclohexylmethyl-ureido)-3,4-dihydro-1H-isoquinoline-2-carboxylic acid 4-carboxymethyl-cyclohexyl ester] | ≥ 60%
13 | ≥ 50% | O=C(O)C[C@H]1CC[C@H](OC(=O)N2CCc3cc(NC(=O)NC45CC6CC(CC(C6)C4)C5)ccc3C2)CC1 [Example 86, trans-6-(3-adamantan-1-yl-ureido)-3,4-dihydro-1H-isoquinoline-2-carboxylic acid 4-carboxymethyl-cyclohexyl ester] | ≥ 60%
14 | ≥ 50% | Cc1cncc(NC(=O)Nc2ccc3c(c2)CCN(C(=O)O[C@H]2CC[C@H](CC(=O)O)CC2)C3)c1 [Example 90, trans-6-[3-(5-methyl-pyridin-3-yl)-ureido]-3,4-dihydro-1H-isoquinoline-2-carboxylic acid 4-carboxymethyl-cyclohexyl ester] | ≥ 60%
15 | ≥ 50% | O=C(O)C[C@H]1CC[C@H](OC(=O)N2CCc3cc(NC(=O)Nc4ccc(Cl)cn4)ccc3C2)CC1 [Example 91, trans-6-[3-(5-chloro-pyridin-2-yl)-ureido]-3,4-dihydro-1H-isoquinoline-2-carboxylic acid 4-carboxymethyl-cyclohexyl ester] | ≥ 60%
16 | ≥ 50% | O=C(O)C[C@H]1CC[C@H](OC(=O)N2CCc3cc(NC(=O)Nc4ccc(Cl)nc4)ccc3C2)CC1 [Example 92, trans-6-[3-(6-chloro-pyridin-3-yl)-ureido]-3,4-dihydro-1H-isoquinoline-2-carboxylic acid 4-carboxymethyl-cyclohexyl ester] | ≥ 60%
17 | ≥ 50% | Cc1cnc(NC(=O)Nc2ccc3c(c2)CCN(C(=O)O[C@H]2CC[C@H](CC(=O)O)CC2)C3)s1 [Example 95, trans-6-[3-(5-methyl-thiazol-2-yl)-ureido]-3,4-dihydro-1H-isoquinoline-2-carboxylic acid 4-carboxymethyl-cyclohexyl ester] | ≥ 60%
18 | ≥ 50% | Cc1cc(NC(=O)Nc2ccc3c(c2)CCN(C(=O)O[C@H]2CC[C@H](CC(=O)O)CC2)C3)no1 [Example 97, trans-6-[3-(5-methyl-isoxazol-3-yl)-ureido]-3,4-dihydro-1H-isoquinoline-2-carboxylic acid 4-carboxymethyl-cyclohexyl ester] | ≥ 60%
19 | ≥ 50% | C[C@@H]1C[C@H](CC(=O)O)CC[C@H]1OC(=O)N1CCc2cc(NC(=O)Nc3cccc(OC(F)(F)F)c3)ccc2C1 [Example 102, 6-[3-(3-trifluoromethoxy-phenyl)-ureido]-3,4-dihydro-1H-isoquinoline-2-carboxylic acidt-4-carboxymethyl-t-2-methyl-r-1-cyclohexyl ester] | ≥ 60%
20 | ≥ 50% | CC(C(=O)O)[C@H]1CC[C@H](OC(=O)N2CCc3cc(NC(=O)Nc4ccccc4F)ccc3C2)CC1 (stereo partly drawn) [Example 103, trans-6-[3-(2-fluoro-phenyl)-ureido]-3,4-dihydro-1H-isoquinoline-2-carboxylic acid 4-(1-carboxy-ethyl)-cyclohexyl ester] | ≥ 60%
21 | ≥ 50% | COc1cccc(NC(=O)Nc2ccc3c(c2)CCN(C(=O)O[C@H]2CC[C@H](C(C)C(=O)O)CC2)C3)c1 (stereo partly drawn) [Example 104, trans-6-[3-(3-methoxy-phenyl)-ureido]-3,4-dihydro-1H-isoquinoline-2-carboxylic acid 4-(1-carboxy-ethyl)-cyclohexyl ester] | ≥ 60%
22 | ≥ 50% | CC(C(=O)O)[C@H]1CC[C@H](OC(=O)N2CCc3cc(NC(=O)Nc4ccccc4)ccc3C2)CC1 (stereo partly drawn) [Example 105, trans-6-(3-phenyl-ureido)-3,4-dihydro-1H-isoquinoline-2-carboxylic acid 4-(1-carboxy-ethyl)-cyclohexyl ester] | ≥ 60%
23 | ≥ 50% | CC(C(=O)O)C1CCC(CC(=O)N2CCc3cc(NC(=O)Nc4ccccc4F)ccc3C2)CC1 (stereo not drawn) [Example 107, 2-[4-(2-{6-[3-(2-fluoro-phenyl)-ureido]-3,4-dihydro-1H-isoquinolin-2-yl}-2-oxo-ethyl)-cyclohexyl]-propionic acid] | ≥ 60%
24 | ≥ 50% | CN(C(=O)N1CCc2cc(NC(=O)Nc3ccccc3F)ccc2C1)C1CCC(CC(=O)O)CC1 (stereo not drawn) [Example 108, [4-({6-[3-(2-fluoro-phenyl)-ureido]-3,4-dihydro-1H-isoquinoline-2-carbonyl}-methyl-amino)-cyclohexyl]-acetic acid] | ≥ 60%
